The text below walks through data of patent US9585903B2, “Pharmaceutical composition comprising sophorolipid in combination with an antibiotic” (priority 2013, dated 2017).

Molecules are shown by their SMILES. Where a name gives a salt, the structure may show the parent alone. Read-outs that look alike come from different tables or passages of the source.

What all share (assay type): cell-based
For assay [1], the system named is Escherichia coli (ATCC-8739). As to the kind of experiment: MIC determination on culture plate. The following applies: against E. coli (ATCC8739). An excerpt:
(§1) The test microorganisms—Staphylococcus aureus (ATCC-29737) (gram positive) and Escherichia coli (ATCC-8739) (gram negative) used in the invention were procured from National Collection of Industrial Microorganisms, NCL. These two bacteria are of concern due to following reasons—Staphylococcus aureus, capable of causing wide range of severe skin infections; is rapidly evolving resistance to contemporary topical as well as systemic antibiotics (Englander and Friedman 2010). And Escherichia coli, another index bacterium; is more than just a harmless intestinal inhabitant; it can also be a highly versatile, and frequently deadly pathogen. Several different E. coli strains cause diverse intestinal and extra-intestinal diseases by means of virulence factors that affect a wide range of cellular processes (Kaper et al. 2004).
(§2) Accordingly, the stock solutions were prepared in sterile distilled water to assess the MIC values of the antibiotic and SL. The stock strength used was 1 mg/ml for antibiotics and 10 mg/ml for SL. The conjugative/synergistic effect of SL and tetracycline was checked against S. aureus while the conjugative effect of SL and cefaclor was checked against E. coli. In the first step, A600 i.e. absorbance of bacterial suspension giving isolated colonies was fixed and the same A600 was maintained throughout the experiment. Then the MIC values were determined for SL as well as antibiotic against the bacteria. Minimum Inhibitory Concentration (MIC) is defined as the lowest concentration of compound that inhibits visible growth of microorganisms on the culture plate (Rai et al. 2010). For assessing the conjugative effect, the sublethal concentrations of both antimicrobial agents were used so as to rightly evaluate the conjugative effect. Against S. aureus, sublethal concentration of SL was decided to be 300 μg/ml and for tetracycline it was 15 μg/ml.
(§3) The stock solutions were prepared in sterile distilled water to assess the MIC values of the antibiotic and SL. The stock strength used was 1 mg/ml for antibiotics and 10 mg/ml for SL. […]

For assay [2], the system named is Escherichia coli (ATCC-8739). As to the kind of experiment: Assay of conjugative action of SL and antibiotic (micro dilution and spread plate, CFU count, % cell survival).
Method: (§4) Accordingly, the stock solutions were prepared in sterile distilled water to assess the MIC values of the antibiotic and SL. The stock strength used was 1 mg/ml for antibiotics and 10 mg/ml for SL. […] In the first step, A600 i.e. absorbance of bacterial suspension giving isolated colonies was fixed and the same A600 was maintained throughout the experiment. Then the MIC values were determined for SL as well as antibiotic against the bacteria. […] For assessing the conjugative effect, the sublethal concentrations of both antimicrobial agents were used so as to rightly evaluate the conjugative effect.
(§5) According to another aspect, the assay of conjugative action of SL and antibiotic was performed using standard micro dilution and spread plate method. The reaction mixtures were prepared by adding SL and antibiotic stock solutions to sterile distilled water in requisite volumes followed by the addition of bacterial suspension. The control reactions were also set with both bacterial systems to evaluate the effect of antibiotic and SL alone. Controls without addition of any antimicrobial agent were also maintained. The reaction mixtures were incubated at 28° C., 180 rpm for 6 h. The samples were removed at periodic intervals of 2 h, 4 h and 6 h and number of Colony Forming Units (CFUs) were determined by spreading 50 μl of mixture on Nutrient agar plates. […]
Assay [3] relates to Staphylococcus aureus (ATCC-29737). As to the kind of experiment: MIC determination on culture plate.
From the text: as §1, §2, §3

The test system is the same in assay [4]. In words: Assay of conjugative action of SL and antibiotic (micro dilution and spread plate, CFU count, % cell survival). The note with it: FIG. 2(a); tetracycline 15 μg/ml, SL 300 μg/ml; up to 6 h exposure.
Method: as §4, §5

Regarding `N[C@@H](C(=O)N[C@@H]1C(=O)N2C(C(=O)O)=C(Cl)CS[C@H]12)c1ccccc1` [Cefaclor], in assay [1], the MIC is 200 µg/mL. The “exposure required to get equivalent effect (~98% killing)” value in assay [2] (E. coli, cefaclor alone 50 μg/ml) was determined as 6 h. Further, the “inhibition of E. coli (in words)” value in assay [2] (FIG. 2(b), cefaclor 50 μg/ml, SL 500 μg/ml, up to 6 h exposure) is “almost total inhibition at the end of 6 h exposure”.
For `CN(C)[C@@H]1C(O)=C(C(N)=O)C(=O)[C@@]2(O)C(O)=C3C(=O)c4c(O)cccc4[C@@](C)(O)[C@H]3C[C@@H]12` [tetracycline-HCl], the MIC turned out to be 150 µg/mL in assay [3] (Staphylococcus aureus, against S. aureus (ATCC29737), read-out: MIC value) and 150 μn/ml in assay [3] (against Staphylococcus aureus). Further, the “inhibition of S. aureus (in words)” value in assay [4] is recorded as “cannot achieve total inhibition even after 6 h”.
